In patent publication US8299302B2 (priority 2007, dated 2012):
Where two headings read alike, the source gives them in different places.

Tests used:
Sphaerotheca fuliginea = assay: Sphaerotheca test (cucumber) / protective; assay type: in vivo; details: Podosphaera fuliginea, 168 h, read-out: efficacy
Description: (§1) To produce a suitable preparation of active compound, 1 part by weight of active compound is mixed with the stated amounts of solvent and emulsifier, and the concentrate is diluted with water to the desired concentration.
(§2) To test for protective activity, young plants are sprayed with the active compound preparation at the stated application rate. After the spray coating has dried, the plants are inoculated with an aqueous spore suspension of Sphaerotheca fuliginea. The plants are then placed in a greenhouse at about 23° C. and a relative atmospheric humidity of about 70%.
Evaluation is carried out 7 days after the inoculation. 0% means an efficacy which corresponds to that of the control, whereas an efficacy of 100% means that no infection is observed.

Botrytis cinerea = assay: Botrytis test (bean) / protective; assay type: in vivo; details: 48 h, read-out: efficacy
Description: as §1
To test for protective activity, young plants are sprayed with the active compound preparation at the stated application rate. After the spray coating has dried on, 2 small pieces of agar overgrown with Botrytis cinerea are placed on each leaf. The inoculated plants are then placed in a darkened chamber at about 20° C. and 100% relative atmospheric humidity.
Two days after the inoculation the size of the infected spots on the leaves is evaluated. 0% means an efficacy which corresponds to that of the control, whereas an efficacy of 100% means that no infection is observed.

Puccinia recondita = assay: Puccinia test (wheat) / protective; assay type: in vivo; details: 240 h, read-out: efficacy
Description: as §1
To test for protective activity, young plants are sprayed with the active compound preparation at the stated application rate. After the spray coating has dried on, the plants are sprayed with a conidia suspension of Puccinia recondita. The plants remain in an incubation cabin at 20° C. and 100% relative atmospheric humidity for 48 hours.
The plants are then placed in a greenhouse at a temperature of about 20° C. and a relative atmospheric humidity of 80% to promote the development of rust pustules.
(§3) Evaluation is carried out 10 days after the inoculation. 0% means an efficacy which corresponds to that of the control, whereas an efficacy of 100% means that no infection is observed.

Podosphaera leucotricha = assay: Podosphaera test (apple) / protective; assay type: in vivo; details: 240 h, read-out: efficacy
Description: as §1
as §2, with “dried on,” for “dried,”, “the apple mildew pathogen Podosphaera leucotricha.” for “Sphaerotheca fuliginea.”
as §3

Uromyces appendiculatus = assay: Uromyces test (bean) / protective; assay type: in vivo; details: 240 h, read-out: efficacy
Description: as §1
To test for protective activity, young plants are sprayed with the active compound preparation at the stated application rate. After the spray coating has dried on, the plants are inoculated with an aqueous spore suspension of the bean rust pathogen Uromyces appendiculatus and then remain in an incubation cabin at about 20° C. and 100% relative atmospheric humidity for 1 day.
The plants are then placed in a greenhouse at about 21° C. and a relative atmospheric humidity of about 90%.
as §3

[1] = cucumber plants, protective spray, active compound concentration 100 ppm, evaluation 7 days after inoculation
[2] = bean plants, protective spray, active compound concentration 250 ppm, evaluation two days after inoculation
[3] = wheat plants, protective spray, active compound concentration 1000 ppm, evaluation 10 days after inoculation
[4] = apple plants, protective spray, active compound concentration 100 ppm, evaluation 10 days after inoculation
[5] = bean plants, protective spray, active compound concentration 10 ppm, evaluation 10 days after inoculation

Compound	pest or weed control at 100 ppm (Sphaerotheca fuliginea; [1])	pest or weed control at 250 ppm (Botrytis cinerea; [2])	pest or weed control at 1000 ppm (Puccinia recondita; [3])	pest or weed control at 100 ppm (Podosphaera leucotricha; [4])	pest or weed control at 10 ppm (Uromyces appendiculatus; [5])	logP (logP (acidic, pH 2.3); pH 2.3, logP acidic, acidic)	pest or weed control at 100 ppm (Sphaerotheca fuliginea)	pest or weed control at 250 ppm (Botrytis cinerea)	pest or weed control at 1000 ppm (Puccinia recondita)	pest or weed control at 100 ppm (Podosphaera leucotricha)	pest or weed control at 10 ppm (Uromyces appendiculatus)	logP (logP (acidic, pH 2.3); pH 2.3)	log P (pH 2.3)	logP (logP (acidic, pH 2.3); pH 2.3, log P (pH 2.3), pH 2.3)
CCN(C)C=Nc1cc(C)c(Oc2ccc(-c3ccc(Cl)cc3)cc2)cc1C [Compound 1, N′-{4-[(4′-chlorobiphenyl-4-yl)oxy]-2,5-dimethylphenyl}-N-ethyl-N-methylimidoformamide]	≥ 70%	≥ 70%	≥ 70%	≥ 70%	≥ 70%	2.95	–	–	–	–	–	–	–	–
CCN(C)C=Nc1cc(C)c(Oc2ccc(-c3ccccc3F)cc2)cc1C [Compound 17]	–	–	–	–	–	–	≥ 70%	≥ 70%	≥ 70%	≥ 70%	≥ 70%	2.56	–	–
CCN(C)C=Nc1cc(C)c(Oc2ccc(-c3ccc(SC)cc3)cc2)cc1C [Compound 6, N′-(2,5-dimethyl-4-{[4′-(methylthio)biphenyl-4-yl]oxy}phenyl)-N-ethyl-N-methylimidoformamide]	≥ 70%	≥ 70%	≥ 70%	≥ 70%	≥ 70%	2.67	–	–	–	–	–	–	–	–
Cc1cc(Oc2ccc(C3CCCC3)cc2)c(C)cc1N=CN(C)C(C)C [Compound 33, N′-[4-(4-cyclopentylphenoxy)-2,5-dimethylphenyl]-N-isopropyl-N-methylimidoformamide]	≥ 70%	≥ 70%	≥ 70%	≥ 70%	≥ 70%	3	–	–	–	–	–	–	–	–
4-(4-Bromophenoxy)-2,5-dimethylnitrobenzene	–	–	–	–	–	–	–	–	–	–	–	–	4.86	–
CCN(C)C=Nc1cc(C)c(Oc2ccc(-c3ccccc3Cl)cc2)cc1C [Compound 27, N′-{4-[(2′-chlorobiphenyl-4-yl)oxy]-2,5-dimethylphenyl}-N-ethyl-N-methylimidoformamide]	≥ 70%	≥ 70%	≥ 70%	≥ 70%	≥ 70%	2.67	–	–	–	–	–	–	–	–
CCN(C)C=Nc1cc(C)c(Oc2ccc(C3CCCC3)cc2)cc1C [Compound 32, N′-[4-(4-cyclopentylphenoxy)-2,5-dimethylphenyl]-N-ethyl-N-methylimidoformamide]	≥ 70%	≥ 70%	≥ 70%	≥ 70%	≥ 70%	2.87	–	–	–	–	–	–	–	–
CCN(C)C=Nc1cc(C)c(Oc2ccc(-c3ccccc3C)cc2)cc1C [Compound 16]	–	–	–	–	–	–	≥ 70%	≥ 70%	≥ 70%	≥ 70%	≥ 70%	2.75	–	–
CCN(C)C=Nc1cc(C)c(Oc2ccc(-c3ccccc3C(C)=O)cc2)cc1C [Compound 18]	–	–	–	–	–	–	≥ 70%	≥ 70%	≥ 70%	≥ 70%	≥ 70%	2.29	–	–
CCN(C)C=Nc1cc(C)c(Oc2ccc(C3CCCCC3)cc2)cc1C [Compound 38, N′-{4-[4-cyclohexylphenoxy]-2,5-dimethylphenyl}-N-ethyl-N-methylimidoformamide]	≥ 70%	≥ 70%	≥ 70%	≥ 70%	≥ 70%	2.99	–	–	–	–	–	–	–	2.99
4-(4-Cyclohexylphenoxy)-2,5-dimethylnitrobenzene	–	–	–	–	–	–	–	–	–	–	–	–	6.69	–
CCc1ccccc1-c1ccc(Oc2cc(C)c(N=CN(C)CC)cc2C)cc1 [Compound 13]	–	–	–	–	–	–	≥ 70%	≥ 70%	≥ 70%	≥ 70%	≥ 70%	2.89	–	–
CCN(C)C=Nc1cc(C)c(Oc2ccc(-c3ccc(F)cc3)cc2)cc1C [Compound 11]	–	–	–	–	–	–	≥ 70%	≥ 70%	≥ 70%	≥ 70%	≥ 70%	2.69	–	–
